Laboratory results from patent publication US20250011365A1, “ECHINOCANDIN-BASED DRUG, AND PREPARATION METHOD THEREFOR AND USE THEREOF” (Shenzhen Sungening Biological Co., Ltd, priority 2023, published 2025).
In brackets after ≈: the same amount, converted by molar mass. Numbered stars: 1 amine (or outer) side, 2 acyl side, 3 side chain; on linkers, the order of the positions; unused ones are H or OH. Bridge positions count the residues as written; N and C are the ends. Square brackets hold non-standard residues; d marks the D form. Peptide text beside a SMILES is read from it. * marks the point of attachment. Orn(4R-OH,5R-OCH2CH2NMe3+) = C[N+](C)(C)CCO[C@@H](N[*:3])[C@H](O)C[C@H](N[*:1])C(=O)[*:2]; hTyr(3S-OH,4S-OH) = N[C@H](C(=O)O)[C@H](O)[C@@H](O)c1ccc(O)cc1; X2 = CCCCCOc1ccc(C#Cc2ccc3cc(C(=O)*)ccc3c2)c(F)c1F; Pro(3S-OH,4S-Me) = C[C@H]1CN[C@H](C(=O)O)[C@H]1O; Hyp = O=C(O)[C@@H]1C[C@@H](O)CN1

Columns and labels:
Assay type in all cases: cell-based
[1] = system: C. parapsilosis ATCC 22019; experiment: MIC assay, Candida standard strain (CLSI M27-A3); conditions: Lodderomyces parapsilosis, ATCC22019; C. parapsilosis ATCC 22019 (quality-control strain); 24 h, 35° C.
Procedure: (§1) After gradient dilution of test compounds, an MIC assay was performed on a Candida standard strain, and an MEC assay was performed on an Aspergillus standard strain. […] A cryopreserved strain was passaged at least 2 times. A single colony was picked and resuspended in a physiological saline or sterile water tube, and the tube was subjected to vortex shaking. The Candida suspension was adjusted to 0.5 McF (1×10^6-5×10^6 CFU/mL) at a wavelength of 530 nm by using a spectrophotometer. After being diluted 50 times with physiological saline, the Candida suspension was diluted 20 times with 1×RPMI 1640 broth (1×10^3-5×10^3 CFU/mL). 10 μL of the diluted Candida suspension was coated on an SDA plate for colony counting, with a range of about 10-50 single colonies. After a prepared drug sensitive plate was completely dissolved at room temperature, the Candida suspension was added to the 96-well plate by using a multi-channel pipettor at 100 μL/well. At this time, the concentration of Candida in each well should be 0.5×10^3-2.5×10^3 CFU/mL. A yeast-type fungus assay plate was placed in an incubator, and incubated for 24 h at 35° C. and 85% humidity, and then the MIC values were read. For echinocandin-based drugs, Aspergillus was incubated for 21-26 h at 28° C., and then the MEC results were read. Yeast-type fungi: A 96-well plate was attached with a disposable parafilm, shaken for uniformly mixing, and observed with naked eyes by using a plate reader microscope. […] Pictures were taken and saved by using an automated plate reader.

[2] = system: Candida albicans CICC 1943; experiment: MIC assay, Candida standard strain (CLSI M27-A3); conditions: CICC1943, 24 h, 35° C.
Procedure: as §1

[3] = system: C. glabrata ATCC 15126; experiment: MIC assay, Candida standard strain (CLSI M27-A3); conditions: Nakaseomyces glabratus, ATCC15126, 24 h, 35° C.
Procedure: as §1

[4] = system: Candida albicans ATCC MYA-4788; experiment: MIC assay, Candida standard strain (CLSI M27-A3); conditions: 24 h, 35° C.
Procedure: as §1

[5] = system: Candida albicans CMCC 98001; experiment: MIC assay, Candida standard strain (CLSI M27-A3); conditions: CMCC98001, 24 h, 35° C.
Procedure: as §1

[6] = system: Candida albicans ATCC 10231; experiment: MIC assay, Candida standard strain (CLSI M27-A3); conditions: ATCC10231, 24 h, 35° C., >50% growth inhibition
Procedure: as §1

[7] = system: Candida albicans ATCC 14053; experiment: MIC assay, Candida standard strain (CLSI M27-A3); conditions: ATCC14053, 24 h, 35° C.
Procedure: as §1

[8] = system: Candida albicans ATCC 64124; experiment: MIC assay, Candida standard strain (CLSI M27-A3); conditions: ATCC64124, 24 h, 35° C.
Procedure: as §1

[9] = system: Candida albicans ATCC 18804; experiment: MIC assay, Candida standard strain (CLSI M27-A3); conditions: ATCC18804, 24 h, 35° C.
Procedure: as §1

[10] = system: Candida albicans ATCC MYA-1023; experiment: MIC assay, Candida standard strain (CLSI M27-A3); conditions: 24 h, 35° C.
Procedure: as §1

[11] = system: Candida albicans ATCC MYA-2876; experiment: MIC assay, Candida standard strain (CLSI M27-A3); conditions: 24 h, 35° C.
Procedure: as §1

[12] = system: Candida albicans ATCC MYA-427; experiment: MIC assay, Candida standard strain (CLSI M27-A3); conditions: 24 h, 35° C.
Procedure: as §1

[13] = system: C. tropicalis ATCC 750; experiment: MIC assay, Candida standard strain (CLSI M27-A3); conditions: ATCC750, 24 h, 35° C.
Procedure: as §1

[14] = system: Candida albicans ATCC 90029; experiment: MIC assay, Candida standard strain (CLSI M27-A3); conditions: ATCC90029, 24 h, 35° C.
Procedure: as §1

[15] = system: C. krusei ATCC 6258; experiment: MIC assay, Candida standard strain (CLSI M27-A3); conditions: Pichia kudriavzevii, ATCC6258; C. krusei ATCC 6258 (quality-control strain); 24 h, 35° C.
Procedure: as §1

[16] = system: Candida albicans ATCC MYA-574; experiment: MIC assay, Candida standard strain (CLSI M27-A3); conditions: 24 h, 35° C.
Procedure: as §1

[17] = system: Candida albicans ATCC 76485; experiment: MIC assay, Candida standard strain (CLSI M27-A3); conditions: ATCC76485, 24 h, 35° C.
Procedure: as §1

[18] = system: Candida albicans ATCC 90028; experiment: MIC assay, Candida standard strain (CLSI M27-A3); conditions: ATCC90028, 24 h, 35° C., >50% growth inhibition
Procedure: as §1

[19] = system: Pichia guilliermondii ATCC 6260; experiment: MIC assay, yeast-type fungi (CLSI M27-A3); conditions: Meyerozyma guilliermondii, ATCC6260, 24 h, 35° C.
Procedure: as §1

[20] = system: Aspergillus fumigatus ATCC 204305; experiment: MEC assay, Aspergillus standard strain (CLSI M38-A2); conditions: 21-26 h, 28° C.
Procedure: After gradient dilution of test compounds, an MIC assay was performed on a Candida standard strain, and an MEC assay was performed on an Aspergillus standard strain.
The colonies on the plate were covered with 0.85% physiological saline (1 mL) or sterile water (polysorbate 20 was added to a final concentration of 0.1%-0.01%). […] The resuspension of spore hyphae was transferred to a sterile test tube, and left to stand for 3-5 min to precipitate heavier particles. The homogeneous suspension on the upper layer was transferred to a new sterile test tube, and the tube was capped closely, and subjected to vortex shaking for 15 s (note: the suspension can produce an aerosol when the cap is reopened). The concentration of the suspension was adjusted to an OD value of 0.09-0.13 at 530 nm by using a spectrophotometer. […] Within 2 h after dilution, 100 μL of the diluted suspension was added to each well in a 96-well plate (the concentration of spores in the final drug sensitive plate should be 0.4×10^4-5×10^4 CFU/mL).
In order to accurately determine MEC value, vortex oscillation should not be allowed before reading the plate.

[21] = system: Cryptococcus neoformans ATCC 208821; experiment: MIC assay, yeast-type fungi (CLSI M27-A3); conditions: ATCC208821, 24 h, 35° C.

| SMILES | MIC [1] | MIC [2] | MIC [3] | MIC [4] | MIC [5] | MIC [6] | MIC [7] | MIC [8] | MIC [9] | MIC [10] | MIC [11] | MIC [12] | MIC [13] | MIC [14] | MIC [15] | MIC [16] | MIC [17] | MIC [18] | MIC [19] | MEC [20] | further results |
| --- | --- | --- | --- | --- | --- | --- | --- | --- | --- | --- | --- | --- | --- | --- | --- | --- | --- | --- | --- | --- | --- |
| CC[C@H](C)C[C@H](C)CCCCCCCCC(=O)N[C@H]1C[C@@H](O)[C@@H](NCCN)NC(=O)[C@@H]2[C@@H](O)CCN2C(=O)[C@H]([C@H](O)CCN)NC(=O)[C@H]([C@H](O)[C@@H](O)c2ccc(O)cc2)NC(=O)[C@@H]2C[C@@H](O)CN2C(=O)[C@H]([C@@H](C)O)NC1=O [Caspofungin, reference compound] | 0.5 µg/mL (≈ 0.457 µM) | 0.06 µg/mL (≈ 0.0549 µM) | 0.12 µg/mL (≈ 0.11 µM) | 0.06 µg/mL (≈ 0.0549 µM) | 0.06 µg/mL (≈ 0.0549 µM) | 0.12 µg/mL (≈ 0.11 µM) | 0.03 µg/mL (≈ 0.0274 µM) | 0.12 µg/mL (≈ 0.11 µM) | 0.06 µg/mL (≈ 0.0549 µM) | 0.06 µg/mL (≈ 0.0549 µM) | 0.06 µg/mL (≈ 0.0549 µM) | 0.12 µg/mL (≈ 0.11 µM) | 0.06 µg/mL (≈ 0.0549 µM) | 0.06 µg/mL (≈ 0.0549 µM) | 0.25 µg/mL (≈ 0.229 µM) | ≤ 0.015 µg/mL | 0.06 µg/mL (≈ 0.0549 µM) | 0.12 µg/mL (≈ 0.11 µM) | 0.12 µg/mL (≈ 0.11 µM) | 0.25 µg/mL | MIC [21]: 16 µg/mL (≈ 14.6 µM) |
| CCCCCOc1ccc(C#Cc2ccc3cc(C(=O)N[C@H]4C[C@@H](O)[C@@H](OCC[N+](C)(C)C)NC(=O)[C@@H]5[C@@H](O)[C@@H](C)CN5C(=O)[C@H]([C@@H](C)O)NC(=O)[C@H]([C@H](O)[C@@H](O)c5ccc(O)cc5)NC(=O)[C@@H]5C[C@@H](O)CN5C(=O)[C@H]([C@@H](C)O)NC4=O)ccc3c2)c(F)c1F [Example 8] (X2-[Orn(4R-OH,5R-OCH2CH2NMe3+)]T[Hyp][hTyr(3S-OH,4S-OH)]T[Pro(3S-OH,4S-Me)]; lactam 1-C) | 0.5 µg/mL | 0.03 µg/mL | 0.06 µg/mL | ≤ 0.015 µg/mL | ≤ 0.015 µg/mL | 0.03 µg/mL | ≤ 0.015 µg/mL | ≤ 0.015 µg/mL | ≤ 0.015 µg/mL | ≤ 0.015 µg/mL | ≤ 0.015 µg/mL | 0.03 µg/mL | ≤ 0.015 µg/mL | ≤ 0.015 µg/mL | 0.12 µg/mL | ≤ 0.015 µg/mL | ≤ 0.015 µg/mL | ≤ 0.015 µg/mL | 0.25 µg/mL | 0.03 µg/mL | MIC [21]: 8 µg/mL |
